The source of these data is patent publication US5631257A, “Benzoxazole derivatives” (Meiji Seika Kaisha, Ltd., priority 1993, dated 1997).

For assay [1], the system named is 5-HT3 receptor. The assay can be described thus: 5-HT3 receptor antagonism (inhibition of 5-HT-induced bradycardia in anesthetized mice). Format: in vivo. Particulars: 30 minutes before 5-HT 0.25 mg/kg i.v. The procedure:
In accordance with the procedure of Saxena et al. (Arch. Int. Pharmacodyn.,277, 235-252, 1985), each compound was dissolved in distilled water for injection to give different concentration and was administered intraperitoneally to mice which had been anesthetized with pentobarbital (3 animals per group), and ratio of inhibition of bradycardia induced by 5-HT administration (0.25 mg/kg, i.v.) was examined 30 minutes thereafter.

In assay [2] the target is T1, 5-HT3 receptor (Mus musculus, UniProt P23979).
T1 construct: membrane fraction prepared from rat N1E-115 cells; endogenous in cells; host or cells: N1E-115 cells, membrane fraction
T1 sequence (P23979 24-483 isoform P23979-2 limits assumed): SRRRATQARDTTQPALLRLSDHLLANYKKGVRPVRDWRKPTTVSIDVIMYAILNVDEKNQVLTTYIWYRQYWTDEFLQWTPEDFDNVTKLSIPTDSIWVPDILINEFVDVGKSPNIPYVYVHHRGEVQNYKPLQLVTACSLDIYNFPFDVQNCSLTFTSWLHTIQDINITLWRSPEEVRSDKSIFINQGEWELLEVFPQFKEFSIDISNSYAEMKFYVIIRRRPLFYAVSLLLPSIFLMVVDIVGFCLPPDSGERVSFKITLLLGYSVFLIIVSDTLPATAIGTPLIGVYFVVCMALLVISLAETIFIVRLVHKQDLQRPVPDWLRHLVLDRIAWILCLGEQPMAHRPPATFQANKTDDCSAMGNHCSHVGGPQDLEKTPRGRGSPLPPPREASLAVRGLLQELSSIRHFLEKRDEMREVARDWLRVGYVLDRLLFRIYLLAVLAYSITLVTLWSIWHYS
Briefly: 5-HT3 receptor binding affinity (inhibition of [^3 H]-GR65630 binding). Particulars: membrane fraction from rat N1E-115 cells. The text has this:
Using a membrane fraction prepared from rat N1E-115 cells in accordance with the procedure of Lummis et al. (European Journal of Pharmacology, 189, 223-227, 1990), effects of the inventive compounds to inhibit binding of [^3 H]-GR65630 which was radioligand 5-HT3 antagonist to 5-HT3 receptor were examined, with the results shown in Table 1.

In assay [3] the test system is cisplatin-treated dogs. Briefly: Antiemetic effect in cisplatin-treated dogs. It counts as in vivo. Particulars: 0.1 × 2 mg/kg i.v., 30 minutes before and 2 hours after cisplatin 3 mg/kg i.v.; observed over 6 hours; control 13.5. Here is the method:
Each of test dogs (2 animals per group) after 16 hours of fasting was fed with 200 g of a solid food, and cisplatin was administered to the animal 30 minutes thereafter by intravenous injection with a dose of 3 mg/kg. The test compound was dissolved in distilled water for injection and was administered by intravenous injection 30 minutes before and 2 hours after the cisplatin administration, and frequency and duration of emesis were observed over 6 hours.

[4] abbreviates: 10^-7 M, read-out: Binding inhibitory ratio of [^3 H]-GR65630 at 10^-7 M.
[5] abbreviates: read-out: Binding inhibitory ratio of [^3 H]-GR65630 at 10^-7 M, 10^-7 M.

Where two headings read alike, the source gives them in different places.

Consider `CN1CCN(c2nc3ccccc3o2)CC1` [Example 1, 2-(4-Methyl-1-piperazinyl)benzoxazole], for which the “Inhibitory ratio (bradycardia induced by 5-HT)” value (“Inhibitory ratio” for short) in assay [1] (3 mg/kg i.p.) is on record as 76%. For the same compound, in assay [2] (setting [4]), the inhibition at 0.1 µM is 89.4%.
Take `C[N+]1(C)CCN(c2nc3ccccc3o2)CC1` [Example 2, 1,1-Dimethyl-4-(benzoxazol-2-yl)piperazinium iodide]: in assay [2] (setting [5]), the inhibition at 0.1 µM came out at 45.5%.
The compound `C=CC[N+]1(C)CCN(c2nc3ccccc3o2)CC1.[I-]` [Example 3, 1-Allyl-1-methyl-4-(benzoxazol-2-yl)piperazinium iodide] yielded a Frequency of emesis in assay [3] of 0 times. Also, in assay [1] (0.3 mg/kg i.p.), the “Inhibitory ratio” value is given as 82%. In addition, in assay [2] (setting [4]), the inhibition at 0.1 µM came out at 52.8%.
`C=CC[N+]1(C)CCN(c2nc3ccccc3o2)CC1` [Example 4, 1-Allyl-1-methyl-4-(benzoxazol-2-yl)piperazinium chloride]: the inhibition at 0.1 µM in assay [2] (setting [5]) came to 48%.
Consider `C[N+]1(CCO)CCN(c2nc3ccccc3o2)CC1.[I-]` [Example 5, 1-(2-Hydroxyethyl)-1-methyl-4-(benzoxazol-2-yl)piperazinium iodide], for which the “Inhibitory ratio” value in assay [1] (0.3 mg/kg i.p.) amounted to 61%. Further, the inhibition at 0.1 µM in assay [2] (setting [4]) turned out to be 78%.
For `CN1CCCN(c2nc3ccccc3o2)CC1` [Example 13, 2-(4-Methyl-1-homopiperazinyl)benzoxazole], the inhibition at 0.1 µM in assay [2] (setting [4]) stood at 97.3%.
Turning to `C[N+]1(C)CCCN(c2nc3ccccc3o2)CC1` [Example 14, 1,1-Dimethyl-4-(benzoxazol-2-yl)homopiperazinium iodide], the inhibition at 0.1 µM in assay [2] (setting [4]) was found to be 44.4%.
`C[N+]1(CCO)CCCN(c2nc3ccccc3o2)CC1` (centres unmarked) [Example 16, 1-(2-Hydroxyethyl)-1-methyl-4-(benzoxazol-2-yl)homo-piperazinium iodide]: the inhibition at 0.1 µM in assay [2] (setting [4]) was 46%.
As for `OCCN1CCCN(c2nc3ccccc3o2)CC1` [Example 19, 2-[4-(2-Hydroxyethyl)-1-homopiperazinyl]benzoxazole], in assay [2] (setting [4]), the inhibition at 0.1 µM amounted to 54.3%.
For `C=CC[N+]1(C)CCN(c2nc3ccc(O)cc3o2)CC1` [Example 22, 1-Allyl-1-1-methyl-4-(6-hydroxybenzoxazol-2-yl)piperazinium iodide], the inhibition at 0.1 µM in assay [2] (setting [4]) was 51.6%.
